{"source": "patent US5840692A", "about": "“Peptide fragments and analogs of thrombospondin” (Allegheny University of the Health Sciences, priority 1995, dated 1998)", "key": {"[1]": {"tested_on": "Mouse B16 F10 melanoma cells", "test": "Direct adhesion assay: melanoma cells adhering to ligand-coated wells", "assay_type": "cell-based", "settings": "for Adhesion as % Thrombospondin: absorbed compound 2 μg per well, B16 F10 melanoma cells, 1 hour at 37° C., cell protein by BCA, absorbance 562 nm; for adhesive properties (in words): melanoma cell adhesion to coated peptide", "procedure": "(§1) It is believed that thrombospondin acts in metastasis through its adhesive properties. An assay was developed, generally in accordance with the disclosure of Tuszynski et al. (Anal. Bio. (1990) 184:189-91) which evaluates the ability of melanoma cells to adhere to the thrombospondin fragments or analogs of the invention. In this assay, wells of a 96-well microtiter dish (Costar, Cambridge, Mass.) were incubated for two to three hours with 50 μl of a 40 μg/ml solution of various ligands in 20 mM NaCl, pH 7.3. Thrombospondin (purified by the method of Tuszynski et al., J. Biol. Chem. (1985) 260:12240-5), fibronectin (Sigma Chemical Co., Missouri) served as the positive control. Bovine serum albumin (BSA) (Sigma Chemical Co.) served as the negative control. Thrombospondin analogs of the invention p1, p5 and p6 were synthesized as described in Examples 1 through 3. Following peptide adhesion to the microtiter dish, the wells were aspirated, treated with 200 μl phosphate buffered saline (PBS) containing 1% BSA for 1 hour and then washed three more times with 200 μl PBS.\n(§2) Mouse B16 F10 melanoma cells were grown and harvested during log phase of growth using standard procedures. The harvested cells were washed two times in serum-free Dulbecco's minimum essential medium (DMEM) (Flow Laboratories) and suspended in DMEM at a final concentration of 4×10^5 cells/ml. Of the cell suspension 100 μl was added to each well of the microtiter dish containing the various ligands and the dish incubated at 37° C. in a CO2 incubator for 1 hour. Nonadherent cells were removed by aspiration and the wells washed three times with 200 μl of PBS. The total cell-associated protein was determined by dissolving the attached cells directly in the microtiter wells with 200 μl of the Pierce BCA working solution (Pierce Chem. Co. Booklet No. 23225 (1987)). The plate was covered with an adhesive mylar sheet (Flow Labs) and incubated at 60° C. for 30 minutes. Plates were allowed to cool to room temperature, cover sheets were removed, and the absorbance of each well was determined at 562 nm with a microtiter plate reader (Biotek, Burlington, Vt.)"}, "[2]": {"tested_on": "melanoma cells (adhesion to absorbed intact thrombospondin)", "test": "Competitive assay to measure thrombospondin specific adhesion to melanoma cells", "assay_type": "cell-based, mouse", "settings": "for competition with thrombospondin for adhesion to melanoma cells (in words): at this concentration (100 μg/ml)", "procedure": "as §1, §2\nThe direct adhesion assay of Example 5 was modified to measure the ability of the peptide compounds of the invention to compete with intact thrombospondin for adhesion to melanoma cells.\nIn this assay, intact thrombospondin is absorbed onto microtiter dishes as described in Example 5. […]"}, "platelets": {"tested_on": "platelets", "test": "Direct platelet adhesion assay", "assay_type": "cell-based", "settings": "for adherence to platelets (in words): at this concentration (40 μg/ml coating solution); for Adherence as % Control: wells treated with 50 μl of 40 μg/ml peptide or protein, platelets incubated 30 minutes, BCA protein assay", "procedure": "(§3) The number of adherent platelets was essentially determined as previously described (Tuszynski et al., Anal. Bio. supra). Briefly, 100 μl of 5×10^8 platelets/ml washed as previously described (Tuszynski, et al., Blood 72, 109-225, 1988) were added to microtiter plates, the wells of which were treated with 50 μl of a 40 μg/ml peptide or protein solution (Hepes buffered saline, pH 7.4). Solutions were dried at room temperature after incubation in a fume hood for two hours. Wells were blocked for one hour with 1% BSA. Platelets (100 μl) were incubated in the wells for 30 minutes and non-adherent platelets were removed by aspiration. Wells were washed 3× with 200 μl of Hepes buffered saline, pH 7.4. The number of adherent platelets was determined by measuring the platelet-derived protein using the BCA protein assay."}, "[3]": {"tested_on": "platelets (adhesion to absorbed thrombospondin (TSP))", "test": "Competitive assay, platelet adhesion to absorbed thrombospondin (TSP)", "assay_type": "cell-based", "settings": "for % Buffer Control (platelet adhesion): absorbed protein TSP, platelets preincubated with 250 μg/ml compound", "procedure": "as §3\n(§4) The direct adhesion assay of Example 7 was modified to measure the ability of the peptide compounds of the invention to compete with intact thrombospindin or fibronectin for adhesion of platelets.\n(§5) In this assay, thrombospondin (TSP) or fibronectin (FN) was absorbed onto microtiter dish as described in Example 7. The assay was similar to Example 7 except that before platelets were added to the microtiter dishes they were preincubated with 250 μg/ml of various ligands."}, "[4]": {"tested_on": "platelets (adhesion to absorbed fibronectin (FN))", "test": "Competitive assay, platelet adhesion to absorbed fibronectin (FN)", "assay_type": "cell-based", "settings": "for % Buffer Control (platelet adhesion): absorbed protein FN, platelets preincubated with 250 μg/ml compound", "procedure": "as §3, §4, §5"}, "[5]": {"tested_on": "platelets in platelet-rich-plasma (PRP)", "test": "Platelet aggregation assay in platelet-rich plasma, ADP-initiated", "assay_type": "cell-based", "settings": "0.5 ml PRP, aggregation initiated with 1 μM ADP", "procedure": "Platelet aggregation was monitored on a single-channel aggregometer equipped to measure luminescence (Chromo-Log, Havertown, Pa.). Platelet-rich-plasma (PRP) was obtained from whole blood anti-coagulated with 0.38% Sodium Citrate by centrifugation at 150×g for 20 minutes. Peptides were added to 0.5 ml of PRP and aggregation initiated with 1 μM ADP. Buffer blanks contained diluent (water) but no peptide."}, "[6]": {"tested_on": "B16 F10 mouse melanoma cells", "test": "Antimetastatic activity in vivo, lung tumors after i.v. melanoma cells", "set-up": "species or system C57 black mice", "settings": "for % buffer control (number of lung tumors): i.v. with 5×10^5 B16 F10 cells, lung tumors counted after 16 days; for number of tumors versus controls (in words) / size of lung tumors (in words): treated C57 black mice, 16 days", "from_the_text": "Briefly, C57 black mice were intravenously injected with 5×10^5 B16 F10 mouse melanoma cells in the presence of either control buffer (Hepes buffered saline, pH 7.4), or the indicated amount of peptide compound of the invention p1, p5 or p6. After 16 days, the mice were sacrificed and the number of lung tumors counted."}, "[7]": {"settings": "cells preincubated with 10 μg/ml compound"}, "[8]": {"settings": "cells preincubated with 50 μg/ml compound"}, "[9]": {"settings": "cells preincubated 15 minutes with 100 μg/ml compound"}, "[10]": {"settings": "cells preincubated with 200 μg/ml compound"}, "[11]": {"settings": "cells preincubated with 300 μg/ml compound"}}, "note": "Where “and” joins values, the source holds several entries; their conditions need not be identical. Equal values may be shown once. Residues, ends and D or L forms follow the SMILES beside them."}
{"compound": "CC(C)[C@H](NC(=O)[C@H](CO)NC(=O)[C@H](CS)NC(=O)[C@@H]1CCCN1C(=O)[C@H](CO)NC(=O)[C@@H](N)Cc1c[nH]c2ccccc12)C(=O)N[C@H](C(=O)N[C@@H](CS)C(=O)NCC(=O)O)[C@@H](C)O", "note": "[Compound p1, WSPCSVTCG] (H-WSPCSVTCG-OH)", "values": [{"measurement": "Adhesion as % Thrombospondin", "setting": "[1]", "result": 98, "unit": "%"}, {"measurement": "adhesive properties (in words)", "setting": "[1]", "result": "display adhesive properties"}, {"measurement": "competition with thrombospondin for adhesion to melanoma cells (in words)", "setting": "[2]", "result": "able to effectively compete with thrombospondin"}, {"measurement": "% of buffer control (melanoma cell adhesion to thrombospondin)", "setting": "[2]; [7]", "result": 49, "unit": "%"}, {"measurement": "% of buffer control (melanoma cell adhesion to thrombospondin)", "setting": "[2]; [8]", "result": 40, "unit": "%"}, {"measurement": "adherence to platelets (in words)", "setting": "platelets", "result": "adhere to platelets"}, {"measurement": "competition with thrombospondin for platelet adhesion (in words)", "setting": "[3]; 250 μg/ml", "result": "effectively competed with thrombospondin"}, {"measurement": "% Buffer Control (platelet adhesion)", "setting": "[3]", "result": 71, "unit": "%"}, {"measurement": "competition with fibronectin for platelet adhesion (in words)", "setting": "[4]; 250 μg/ml", "result": "did not compete with fibronectin"}, {"measurement": "% Buffer Control (platelet adhesion)", "setting": "[4]", "result": 108, "unit": "%"}, {"measurement": "inhibition of platelet aggregation (in words, FIG. 1)", "setting": "[5]", "result": "inhibit platelet aggregation"}, {"measurement": "% buffer control (number of lung tumors)", "setting": "[6]; 30 μg/mouse", "result": 49, "unit": "%"}, {"measurement": "number of tumors versus controls (in words)", "setting": "[6]", "result": "statistically fewer tumors than controls"}, {"measurement": "size of lung tumors (in words)", "setting": "[6]", "result": "smaller in size"}]}
{"compound": "Thrombospondin: large molecular weight 180 kD glycoprotein of three identical disulfide-linked polypeptide chains; purified intact protein, positive control", "values": [{"measurement": "Adhesion as % Thrombospondin", "setting": "[1]", "result": 100, "unit": "%"}, {"measurement": "Adherence as % Control", "setting": "platelets", "result": 100, "unit": "%"}]}
{"compound": "WSPCSVTCGNH2 [Compound p6]", "values": [{"measurement": "Adhesion as % Thrombospondin", "setting": "[1]", "result": 70, "unit": "%"}, {"measurement": "adhesive properties (in words)", "setting": "[1]", "result": "display adhesive properties"}, {"measurement": "competition with thrombospondin for adhesion to melanoma cells (in words)", "setting": "[2]", "result": "compete to a lesser degree"}, {"measurement": "% of buffer control (melanoma cell adhesion to thrombospondin)", "setting": "[2]; [9]", "result": 89, "unit": "%"}, {"measurement": "% of buffer control (melanoma cell adhesion to thrombospondin)", "setting": "[2]; [10]", "result": 74, "unit": "%"}, {"measurement": "% of buffer control (melanoma cell adhesion to thrombospondin)", "setting": "[2]; [11]", "result": 74, "unit": "%"}, {"measurement": "adherence to platelets (in words)", "setting": "platelets", "result": "adhere to platelets"}, {"measurement": "Adherence as % Control", "setting": "platelets", "result": 38, "unit": "%"}, {"measurement": "% Buffer Control (platelet adhesion)", "setting": "[3]", "result": 98, "unit": "%"}, {"measurement": "% Buffer Control (platelet adhesion)", "setting": "[4]", "result": 96, "unit": "%"}, {"measurement": "inhibition of platelet aggregation (in words, FIG. 1)", "setting": "[5]", "result": "inhibit platelet aggregation"}, {"measurement": "% buffer control (number of lung tumors)", "setting": "[6]; 30 μg/mouse", "result": 91, "unit": "%"}, {"measurement": "% buffer control (number of lung tumors)", "setting": "[6]; 100 μg/mouse", "result": 102, "unit": "%"}, {"measurement": "% buffer control (number of lung tumors)", "setting": "[6]; 300 μg/mouse", "result": 50, "unit": "%"}, {"measurement": "number of tumors versus controls (in words)", "setting": "[6]", "result": "statistically fewer tumors than controls"}, {"measurement": "size of lung tumors (in words)", "setting": "[6]", "result": "smaller in size"}]}
{"compound": "fWSPCSVTCGNH2 [Compound p5]", "values": [{"measurement": "Adhesion as % Thrombospondin", "setting": "[1]", "result": 79, "unit": "%"}, {"measurement": "adhesive properties (in words)", "setting": "[1]", "result": "display adhesive properties"}, {"measurement": "competition with thrombospondin for adhesion to melanoma cells (in words)", "setting": "[2]", "result": "compete to a lesser degree"}, {"measurement": "% of buffer control (melanoma cell adhesion to thrombospondin)", "setting": "[2]; [9]", "result": "62% and 108% and 83%"}, {"measurement": "% of buffer control (melanoma cell adhesion to thrombospondin)", "setting": "[2]; [7]", "result": 99, "unit": "%"}, {"measurement": "% of buffer control (melanoma cell adhesion to thrombospondin)", "setting": "[2]; [8]", "result": 104, "unit": "%"}, {"measurement": "% of buffer control (melanoma cell adhesion to thrombospondin)", "setting": "[2]; [10]", "result": 89, "unit": "%"}, {"measurement": "% of buffer control (melanoma cell adhesion to thrombospondin)", "setting": "[2]; [11]", "result": 83, "unit": "%"}, {"measurement": "Adherence as % Control", "setting": "platelets", "result": 2.1, "unit": "%"}, {"measurement": "% Buffer Control (platelet adhesion)", "setting": "[3]", "result": 107, "unit": "%"}, {"measurement": "% Buffer Control (platelet adhesion)", "setting": "[4]", "result": 109, "unit": "%"}, {"measurement": "inhibition of platelet aggregation (in words, FIG. 1)", "setting": "[5]", "result": "inhibit platelet aggregation"}, {"measurement": "% buffer control (number of lung tumors)", "setting": "[6]; 30 μg/mouse", "result": 87, "unit": "%"}, {"measurement": "number of tumors versus controls (in words)", "setting": "[6]", "result": "statistically fewer tumors than controls"}]}
{"compound": "fibronectin", "values": [{"measurement": "Adherence as % Control", "setting": "platelets", "result": 83, "unit": "%"}]}
